Active and inactive are the calls of the source. The calls are words filed in the database; no cut-off is given here.
Columns and labels:
Cholinesterase [1] = molecular target: T1, Cholinesterase (Homo sapiens, UniProt P06276); experiment: Inhibition of recombinant human BuChE expressed in HEK293 cells preincubated for 15 mins; assay type: cell-based
HEK293 = experiment: Selectivity ratio of IC50 for recombinant human AChE expressed in HEK293 cells to IC50 for recombinant human BuChE expressed in HEK293 cells; assay type: cell-based
[2] = molecular target: T2, Amine oxidase [flavin-containing] A (Homo sapiens, UniProt P21397); experiment: Inhibition of human MAO-A expressed in baculovirus infected BTI insect cells preincubated for 15 mins
T2 sequence (P21397 whole entry): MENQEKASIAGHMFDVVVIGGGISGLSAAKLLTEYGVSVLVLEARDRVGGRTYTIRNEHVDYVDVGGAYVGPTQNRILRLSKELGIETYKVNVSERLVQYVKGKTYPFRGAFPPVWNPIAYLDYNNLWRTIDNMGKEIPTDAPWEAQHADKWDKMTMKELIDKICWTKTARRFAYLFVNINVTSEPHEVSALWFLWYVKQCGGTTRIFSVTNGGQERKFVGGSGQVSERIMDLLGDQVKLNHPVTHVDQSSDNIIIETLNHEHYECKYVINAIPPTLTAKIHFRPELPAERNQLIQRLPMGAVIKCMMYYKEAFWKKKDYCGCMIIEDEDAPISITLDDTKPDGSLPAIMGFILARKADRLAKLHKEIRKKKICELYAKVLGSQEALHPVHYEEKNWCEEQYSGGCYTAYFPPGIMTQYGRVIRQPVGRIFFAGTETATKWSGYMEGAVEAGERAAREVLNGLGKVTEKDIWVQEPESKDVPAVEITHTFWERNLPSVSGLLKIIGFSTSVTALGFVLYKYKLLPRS

[3] = molecular target: T3, Amine oxidase [flavin-containing] B (Homo sapiens, UniProt P27338); experiment: Inhibition of human MAO-B expressed in baculovirus infected BTI insect cells preincubated for 15 mins; assay type: cell-based
T3 sequence (P27338 whole entry): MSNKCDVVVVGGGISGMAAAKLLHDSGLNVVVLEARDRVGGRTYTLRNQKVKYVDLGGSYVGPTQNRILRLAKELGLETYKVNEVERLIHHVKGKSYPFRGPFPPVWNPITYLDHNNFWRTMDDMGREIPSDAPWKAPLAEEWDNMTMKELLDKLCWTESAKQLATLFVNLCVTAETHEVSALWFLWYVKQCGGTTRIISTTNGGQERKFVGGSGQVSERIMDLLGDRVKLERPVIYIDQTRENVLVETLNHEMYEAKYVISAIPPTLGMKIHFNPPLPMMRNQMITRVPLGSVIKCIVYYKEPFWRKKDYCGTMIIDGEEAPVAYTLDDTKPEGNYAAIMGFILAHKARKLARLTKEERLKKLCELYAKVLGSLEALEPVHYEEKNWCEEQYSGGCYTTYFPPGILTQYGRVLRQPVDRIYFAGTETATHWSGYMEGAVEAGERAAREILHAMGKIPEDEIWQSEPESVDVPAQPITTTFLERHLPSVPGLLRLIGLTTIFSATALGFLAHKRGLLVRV

Homo sapiens = species: Homo sapiens; experiment: Selectivity ratio of IC50 for human MAO-A expressed in baculovirus infected BTI insect cells to IC50 for human MAO-B expressed in baculovirus infected BTI insect cells
Acetylcholinesterase [4] = molecular target: T4, Acetylcholinesterase (Homo sapiens, UniProt P22303); experiment: Inhibition of recombinant human AChE expressed in HEK293 cells preincubated for 15 mins; assay type: cell-based
T4 sequence (P22303 whole entry): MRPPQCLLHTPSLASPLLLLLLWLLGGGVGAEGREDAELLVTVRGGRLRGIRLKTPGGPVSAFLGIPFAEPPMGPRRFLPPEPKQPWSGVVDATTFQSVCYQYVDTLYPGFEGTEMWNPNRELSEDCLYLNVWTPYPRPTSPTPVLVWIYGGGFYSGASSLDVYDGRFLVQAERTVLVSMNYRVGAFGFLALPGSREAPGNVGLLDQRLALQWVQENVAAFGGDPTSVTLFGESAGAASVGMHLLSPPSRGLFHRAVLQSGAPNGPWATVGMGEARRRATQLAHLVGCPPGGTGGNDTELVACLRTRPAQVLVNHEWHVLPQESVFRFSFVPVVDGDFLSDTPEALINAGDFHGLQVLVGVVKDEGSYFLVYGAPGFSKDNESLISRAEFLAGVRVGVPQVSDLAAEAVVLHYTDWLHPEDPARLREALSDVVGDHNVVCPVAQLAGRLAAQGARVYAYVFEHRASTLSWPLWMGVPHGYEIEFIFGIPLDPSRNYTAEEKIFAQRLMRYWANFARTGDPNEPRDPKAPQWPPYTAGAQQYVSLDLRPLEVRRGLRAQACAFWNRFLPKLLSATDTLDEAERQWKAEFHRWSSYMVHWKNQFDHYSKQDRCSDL

Cholinesterase [5] = molecular target: T1, Cholinesterase; experiment: Inhibition of recombinant human BuChE expressed in HEK293 cells preincubated at 100 uM for 15 mins; assay type: cell-based
Acetylcholinesterase [6] = molecular target: T4, Acetylcholinesterase; experiment: Inhibition of recombinant human AChE expressed in HEK293 cells preincubated at 100 uM for 15 mins; assay type: cell-based
[7] = molecular target: T2, Amine oxidase [flavin-containing] A; experiment: Irreversible inhibition of human MAO-A expressed in baculovirus infected BTI insect cells compound incubated at 10 times IC50 for 30 mins followed by 100 fold dilution relative to control; settings: 0.5 h
[8] = molecular target: T2, Amine oxidase [flavin-containing] A; experiment: Reversible inhibition of human MAO-A expressed in baculovirus infected BTI insect cells
Acetylcholinesterase [9] = molecular target: T4, Acetylcholinesterase; experiment: Inhibition of recombinant human AChE expressed in HEK293 cells assessed as enzyme recovery compound incubated at 10 times IC50 for 30 mins followed by 100 fold dilution relative to control; assay type: cell-based; set-up: scale not given: the % may be the effect or the level left
[10] = Permeability of the compound by PAMPA-BBB method in presence of PBS:ethanol at 70:30 ratio; assay type: ADME; settings: read-out: permeability
[11] = molecular target: T3, Amine oxidase [flavin-containing] B; experiment: Irreversible inhibition of human MAO-B expressed in baculovirus infected BTI insect cells compound incubated at 10 times IC50 for 30 mins followed by 100 fold dilution relative to control; settings: 0.5 h
Cholinesterase [12] = molecular target: T1, Cholinesterase; experiment: Inhibition of recombinant human BuChE expressed in HEK293 cells assessed as enzyme recovery compound incubated at 10 times IC50 for 30 mins followed by 100 fold dilution relative to control; assay type: cell-based; set-up: scale not given: the % may be the effect or the level left
[13] = molecular target: T2, Amine oxidase [flavin-containing] A; experiment: Inhibition of human MAO-A expressed in baculovirus infected BTI insect cells preincubated at 100 uM for 15 mins
[14] = molecular target: T3, Amine oxidase [flavin-containing] B; experiment: Inhibition of human MAO-B expressed in baculovirus infected BTI insect cells preincubated at 100 uM for 15 mins

T1 sequence (P06276 whole entry): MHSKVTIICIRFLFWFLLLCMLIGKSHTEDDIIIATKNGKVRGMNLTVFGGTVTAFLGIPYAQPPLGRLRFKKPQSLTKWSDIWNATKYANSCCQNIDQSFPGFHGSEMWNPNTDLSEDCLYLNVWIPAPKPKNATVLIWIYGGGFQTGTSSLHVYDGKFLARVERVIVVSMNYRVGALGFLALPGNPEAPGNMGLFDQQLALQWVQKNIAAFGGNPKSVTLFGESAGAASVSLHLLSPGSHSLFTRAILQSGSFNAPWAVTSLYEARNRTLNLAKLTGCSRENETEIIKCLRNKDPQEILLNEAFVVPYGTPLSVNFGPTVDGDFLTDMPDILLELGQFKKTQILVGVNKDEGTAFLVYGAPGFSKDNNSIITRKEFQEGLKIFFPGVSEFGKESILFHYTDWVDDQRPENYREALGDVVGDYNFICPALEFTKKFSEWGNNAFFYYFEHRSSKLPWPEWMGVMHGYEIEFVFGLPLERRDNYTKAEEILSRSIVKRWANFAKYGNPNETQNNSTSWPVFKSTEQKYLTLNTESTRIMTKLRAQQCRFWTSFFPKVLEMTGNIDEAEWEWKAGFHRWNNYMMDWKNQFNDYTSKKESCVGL

C#CCNCc1cc2cc(OCCCC3CCN(Cc4ccccc4)CC3)ccc2[nH]1
IC50 (Cholinesterase [1]): 7.3 µM
Ratio IC50 (HEK293): 0.67
IC50 [2]: 19.2 µM
IC50 [3]: 33.6 µM
Ratio IC50 (Homo sapiens): 0.57
IC50 (Acetylcholinesterase [4]): 4.9 µM

C=CCNCc1cc2cc(OCCCC3CCN(Cc4ccccc4)CC3)ccc2[nH]1
IC50 (Cholinesterase [1]): 40.6 µM
Ratio IC50 (HEK293): 0.11
IC50 [2]: 45.3 µM
IC50 [3]: 21.3 µM
Ratio IC50 (Homo sapiens): 2.1
IC50 (Acetylcholinesterase [4]): 4.6 µM

C#CCNCc1cc2cc(OCc3ccccc3)ccc2[nH]1
IC50 [2]: 0.287 µM
IC50 [3]: 0.0041 µM
Ratio IC50 (Homo sapiens): 70

CCOC(=O)c1cc2cc(OCCCC3CCN(Cc4ccccc4)CC3)ccc2[nH]1
IC50 (Cholinesterase [1]): 9.7 µM
Ratio IC50 (HEK293): 0.99
IC50 [2]: 0.877 µM
IC50 [3]: 1 µM
Ratio IC50 (Homo sapiens): 0.87
IC50 (Acetylcholinesterase [4]): 9.6 µM

C#CCN(C)Cc1cc2cc(OCc3ccc(OC)c4ncccc34)ccc2[nH]1
inhibition (Cholinesterase [5]): inactive
IC50 [2]: 630 µM
IC50 [3]: 165 µM
inhibition (Acetylcholinesterase [6]): inactive

C#CCN(C)Cc1cc2cc(OCCCC3CCN(Cc4ccccc4)CC3)ccc2[nH]1
IC50 (Cholinesterase [1]): 7.1 µM
Ratio IC50 (HEK293): 2.2
IC50 [2]: 9.1 µM
IC50 [3]: 35.1 µM
Ratio IC50 (Homo sapiens): 0.26
IC50 (Acetylcholinesterase [4]): 15.4 µM

C#CCN(C)Cc1cc2cc(OCCCC3CCN(Cc4ccccc4)CC3)ccc2n1C
IC50 (Cholinesterase [1]): 3.3 µM
Ratio IC50 (HEK293): 1.03
IC50 [2]: 0.0582 µM
IC50 [3]: 1.2 µM
Ratio IC50 (Homo sapiens): 0.05
IC50 (Acetylcholinesterase [4]): 3.4 µM

C#CCN(C)Cc1cc2cc(OCCCC3CCN(Cc4ccccc4C)CC3)ccc2n1C
IC50 (Cholinesterase [1]): 4.9 µM
inhibition (INH) [7]: 90%
IC50 [3]: 0.184 µM
IC50 [8]: 6.3 µM
Ratio IC50 (Homo sapiens): 0.03
Activity (Acetylcholinesterase [9]): 20%
Papp [10]: 14.4 ×10⁻⁶ cm/s
inhibition (INH) [11]: 90%
Activity (Cholinesterase [12]): 20%
IC50 (Acetylcholinesterase [4]): 2.8 µM

C#CCN(C)Cc1cc2cc(OCCCC3CCN(Cc4ccc(OC)c5ncccc45)CC3)ccc2n1C
inhibition at 100 µM [13]: 40%
inhibition (Cholinesterase [5]): inactive
IC50 [2]: 10.3 µM
IC50 [3]: 7.9 µM
inhibition at 100 µM [14]: 40%

C#CCN(C)Cc1cc2cc(OCCCC3CCN(Cc4ccc(OC(=O)N(C)C)c5ncccc45)CC3)ccc2n1C
IC50 (Cholinesterase [1]): 5.9 µM
Ratio IC50 (HEK293): 1.4
IC50 [2]: 0.258 µM
IC50 [3]: 0.196 µM
Ratio IC50 (Homo sapiens): 1.3
IC50 (Acetylcholinesterase [4]): 8.4 µM

C#CCN(C)Cc1ccc(OC(=O)N(C)C)c2ncccc12
IC50 (Cholinesterase [1]): 7.9 µM
IC50 (Acetylcholinesterase [4]): 0.52 µM

OCc1cc2cc(OCCCC3CCN(Cc4ccccc4)CC3)ccc2[nH]1
IC50 (Cholinesterase [1]): 31.2 µM
Ratio IC50 (HEK293): 0.43
IC50 [2]: 9.1 µM
IC50 [3]: 13.5 µM
Ratio IC50 (Homo sapiens): 0.67
IC50 (Acetylcholinesterase [4]): 13.6 µM

C#CCN(C)Cc1cc2cc(OCc3ccc(OC(=O)N(C)C)c4ncccc34)ccc2n1C
inhibition (Cholinesterase [5]): inactive
IC50 [2]: 311 µM
IC50 [3]: 273 µM
inhibition (Acetylcholinesterase [6]): inactive

Source: ChEMBL document CHEMBL3407435, “N-Methyl-N-((1-methyl-5-(3-(1-(2-methylbenzyl)piperidin-4-yl)propoxy)-1H-indol-2-yl)methyl)prop-2-yn-1-amine, a new cholinesterase and monoamine oxidase dual inhibitor” (J Med Chem, 2014)
